Reference: patent US4174451A, “2-Furyl-(3,4-dimethyl-2-pyridyl)-carbinol” (Laboratorios Made, S.A., priority 1977, dated 1979)

Legend:
[1] = tested on: Swiss I.C.R. albino mice; experiment: Thermal analgesia, 55° C. Hot Plate technique; assay type: in vivo; details: for Jumping time in sec. x ± S.E.M.: 30 minutes after administration, batches of 10 mice, mean ± S.E.M., control 63.7 ± 4.54; for Signif. of differences vs Control (jumping time): p value
Protocol: The thermal analgesic effect was studied in Swiss I.C.R. albino mice. The 55° C. Hot Plate technique was used. Batches of 10 mice were used.
The products under study were administered intraperitoneally, and after 30 minutes the mice were placed on the hot plate, count being made of the time, in seconds, it took them to jump. Batches of control animals were injected only with distilled water.

[2] = tested on: Swiss I.C.R. albino mice; experiment: Chemical analgesia, acetic acid writhing technique; assay type: in vivo; details: for No. of writhes x ± S.E.M.: 30 minutes before 0.25 ml of 1% acetic acid i.p., counted twenty minutes later, batches of 10 mice, control 78.4 ± 6.7
Protocol: The analgesic effect was studied in Swiss I.C.R. albino mice, by the acetic acid writhing technique. Batches of 10 mice were made.
The products under study were administered intraperitoneally, and 30 minutes later 0.25 ml of 1% acetic acid was injected intraperitoneally. A batch of control animals received only the acetic acid. Twenty minutes following administration of the acetic acid, the number of writhes in each mouse was counted.

[3] = Acute toxicity in mice (LD50, Litchfield-Wilcoxon test); design: species or system Swiss I.C.R. albino mice; details: mouse, in vivo, ip; intraperitoneal, deaths counted 48 hours after treatment, both sexes, fasted 24 hours
Protocol: An acute toxicity study was made on Swiss I.C.R. albino mice of both sexes of 30± 2 g in weight, kept without food for 24 hours prior to the experiment. Ambient temperature and relative humidity were kept constant. The products were administered intraperitoneally, the number of deaths being counted 48 hours after treatment. The lethal dose (LD50) was calculated by the Litchfield-Wilcoxon test.

[4] = p value, 30 mg/kg intraperitoneal
[5] = in words, compared with dextropropoxyphene

For `CCC(=O)O[C@](Cc1ccccc1)(c1ccccc1)[C@H](C)CN(C)C` [Dextropropoxyphene, dextropropoxyphene, reference compound], the “Jumping time in sec. x ± S.E.M.” value ([1]; 30 mg/kg intraperitoneal) was 116.8 ± 12.43 s, the “Signif. of differences vs Control (jumping time)” value ([1]; 30 mg/kg intraperitoneal) was less than 0.01 and the “No. of writhes x ± S.E.M.” value ([2]; 30 mg/kg intraperitoneal) was 8.4 ± 4.04. The “Signif. of differences vs Control (writhes)” value [2, 4] was less than 0.00005.

For `Cc1ccnc(C(O)c2ccco2)c1C` (stereo not shown) [Product I, 2-furyl-(3,4-dimethyl-2-pyridyl)-carbinol], the LD50 at 48 h [3] was 309 mg/kg, the “Jumping time in sec. x ± S.E.M.” value ([1]; 30 mg/kg intraperitoneal) was 110.1 ± 13.28 s and the “Signif. of differences vs Dextroprop. (jumping time)” value ([1]; 30 mg/kg intraperitoneal, vs dextropropoxyphene 30 mg/kg, N.S.) was “N.S”. The thermal analgesic action [1, 5] was “same thermal analgesic action as the dextropropoxyphene”, the “Signif. of differences vs Control (jumping time)” value ([1]; 30 mg/kg intraperitoneal) was less than 0.005 and the “No. of writhes x ± S.E.M.” value ([2]; 30 mg/kg intraperitoneal) was 53 ± 6.07. The chemical analgesic action [2, 5] was “chemical analgesic action, but of lesser intensity than that of dextropropoxyphene”, the “Signif. of differences vs Control (writhes)” value [2, 4] was less than 0.02 and the “Signif. of differences vs Dextroprop. (writhes)” value ([2]; p value, 30 mg/kg intraperitoneal, vs dextropropoxyphene 30 mg/kg) was less than 0.00005.
